Data on two molecules can be found in patent US9556205B2, “Fungicide N-[(trisubstitutedsilyl)methyl]-carboxamide derivatives” (BAYER INTELLECTUAL PROPERTY GMBH, priority 2010, dated 2017).

One data set relates to Alternaria solani. The experiment in a line: In vivo preventive test on Alternaria solani (tomato).
Another data set deals with Pyrenophora teres. The experiment in a line: In vivo preventive test on Pyrenophora teres (barley), Example F.
The test system of data set [1] is Puccinia recondita. Briefly: In vivo preventive test on Puccinia recondita (wheat), Example H. The settings on record: 500 ppm, evaluated 7-9 days after inoculation. The method, then:
Solvent: 49 parts by weight of N,N-dimethylacetamide Emulsifier: 1 part by weight of alkylaryl polyglycol ether To produce a suitable preparation of active compound, 1 part by weight of active compound is mixed with the stated amounts of solvent and emulsifier, and the concentrate is diluted with water to the desired concentration. To test for preventive activity, young plants are sprayed with the preparation of active compound at the stated rate of application. One day after this treatment, the plants are inoculated with an aqueous spore suspension of Puccinia recondita. […] Then the plants are placed in a greenhouse at a temperature of approximately 20° C. and a relative atmospheric humidity of approximately 80%.

The nature of data set [2]: log P by HPLC on reversed-phase column (C18), EEC Directive 79/831 Annex V.A8. The data set is classed as physicochemical. The settings on record: 40° C., 0.1% aqueous formic acid and acetonitrile, linear gradient 10% to 90% acetonitrile.
For data set [3], the system named is Puccinia recondita. The experiment in a line: In vivo test on Puccinia recondita (wheat brown rust), Example I. The note with it: wheat (Scipion variety), 500 ppm of active ingredient, grading 10 days after contamination.
The mark [4] stands for this setting: 500 ppm, comparison with prior-art compound.

In the case of `Cn1nc(C(F)F)c(C(=O)N(C[Si](C)(C)c2ccccc2)C2CCCCC2)c1F` [Example 11], the Efficacy is recorded as 90% in the data set with Alternaria solani (500 ppm of active ingredient, evaluated 7 days after inoculation) and 70% in the data set on Pyrenophora teres (500 ppm of active ingredient, evaluated 7-9 days after inoculation). Moreover, the figures for the disease control with Alternaria solani (setting [4]), in the data set on Pyrenophora teres (setting [4]) and in the data set on Puccinia recondita [1] were 90%, 70% and 80%, respectively. The logP (commonly the decadic logarithm of the partition coefficient of the neutral form, usually between octanol and water) in data set [2] was 4.86.
Turning to `CCc1nn(C)c(F)c1C(=O)N(C[Si](C)(C)c1ccccc1)C1CC1` [Example 7], the protection result with Puccinia recondita [3] is recorded as “at least 70%”. Further, the logP in data set [2] amounted to 3.64.
